Data from patent US20260200920A1, “SUBSTITUTED AMINOPYRIDINE COMPOUNDS FOR USE AS AKT1 INHIBITORS” (Atavistik Bio, Inc., priority 2023, published 2026).

Legend:
[1] = target: T1, human recombinant kinase full-length AKT1 E17K (Homo sapiens, UniProt P31749, E17K); assay: AKT1 E17K kinase assay (TR-FRET, Lance); type: biochemical; conditions: 0.6 nM AKT1 E17K, 50 nM Ulight-CREBtide, either 50 μM ATP or 2 mM ATP, 60 min at RT
T1 construct: Purified human recombinant kinase full-length AKT1 E17K was expressed in insect cells; made in house; host or cells: insect cells
T1 sequence (P31749 whole entry E17K): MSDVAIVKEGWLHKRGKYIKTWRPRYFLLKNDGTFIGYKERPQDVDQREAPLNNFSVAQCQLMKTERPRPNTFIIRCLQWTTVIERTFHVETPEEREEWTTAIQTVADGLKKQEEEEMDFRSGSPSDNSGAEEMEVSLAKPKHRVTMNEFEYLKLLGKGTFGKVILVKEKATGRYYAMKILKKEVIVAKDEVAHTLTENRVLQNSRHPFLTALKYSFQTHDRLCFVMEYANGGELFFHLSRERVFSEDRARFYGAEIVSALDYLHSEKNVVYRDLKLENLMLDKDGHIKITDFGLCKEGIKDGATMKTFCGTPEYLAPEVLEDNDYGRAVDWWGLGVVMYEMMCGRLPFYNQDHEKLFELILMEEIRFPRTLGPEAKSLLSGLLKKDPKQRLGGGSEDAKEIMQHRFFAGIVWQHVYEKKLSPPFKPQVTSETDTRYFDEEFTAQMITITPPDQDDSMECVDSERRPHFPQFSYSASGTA
Summary of the method: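 IC50 came from a 10-point, 4-parameter fit of the 665/620 TR-FRET ratio read with Eu-anti-phospho-CREB (Ser133). Reaction at RT for 60 min after 15 min compound preincubation, using 0.6 nM PDPK1-activated full-length AKT1 E17K (insect-cell), 50 nM Ulight-CREBtide, ATP at 50 μM or 2 mM, HEPES pH 7.5, 1% DMSO.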

[2] = target: T2, human recombinant kinase full-length wildtype AKT1 (Homo sapiens, UniProt P31749); assay: AKT1 kinase assay (wildtype, TR-FRET, Lance); type: biochemical; conditions: 0.6 nM wildtype AKT1, 50 nM Ulight-CREBtide, either 50 μM ATP or 2 mM ATP, 60 min at RT
T2 construct: Purified human recombinant kinase full-length wildtype AKT1 was expressed in insect cells; made in house; host or cells: insect cells
T2 sequence (P31749 whole entry): as the sequence (P31749 whole entry E17K) above, with K17E counted along it
Summary of the method: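 TR-FRET 665/620 ratio quantified phospho-CREBtide formed by PDPK1-activated full-length human AKT1 (0.6 nM, insect-cell-derived) over 60 min at RT with 50 nM ULight-CREBtide and either 50 μM or 2 mM ATP. Compounds were preincubated 15 min with enzyme; IC50 came from 4-parameter fits of 10-point duplicates.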

IC50 [1] [µM]	IC50 [2] [µM]	SMILES
0.5 to 2	< 20	CC(C)(C(=O)O)C1CCN(Cc2ccc(-n3c(-c4cccnc4N)nc4ccc(-c5ccccc5)nc43)c(F)c2)C1 (stereo not shown) [Compound I-185]
≥ 2	< 20	CNC(=O)[C@H]1CC[C@H](N(C)Cc2ccc(-n3c(-c4cccnc4N)nc4ccc(-c5ccccc5)nc43)cc2)CC1 [Compound I-186, trans-4-((4-(2-(2-aminopyridin-3-yl)-5-phenyl-3H-imidazo[4,5-b]pyridin-3-yl)benzyl)(methyl)amino)-N-methylcyclohexane-1-carboxamide]
0.5 to 2	< 20	CC1(C)CC(C(=O)O)CCC1CN1CCC(c2ccc(-n3c(-c4cccnc4N)nc4ccc(-c5ccccc5)nc43)cc2)CC1 (stereo not shown) [Compound I-194]
0.5 to 2	< 20	Nc1ncccc1-c1nc2ccc(-c3ccccc3)nc2n1-c1ccc(C2CCN(CC34CCC(C(=O)O)(CC3)CC4)CC2)cc1 [Compound I-195]
≥ 2	< 20	CC1(C)C[C@H](CN2CCC(c3ccc(-n4c(-c5cccnc5N)nc5ccc(-c6ccccc6)nc54)cc3)CC2)CC(C)(C)[C@@H]1C(=O)O [Compound I-197]
0.5 to 2	< 20	Cc1cc(C2CN(CC34CCC(C(=O)O)(CC3)CC4)C2)ccc1-n1c(-c2cccnc2N)nc2ccc(-c3ccccc3F)nc21 [Compound I-200]
< 0.5	< 20	Nc1ncccc1-c1nc2ccc(-c3ccccc3F)nc2n1-c1ccc(C2CN(CC34CCC(C(=O)O)(CC3)CC4)C2)cc1 [Compound I-203]
0.5 to 2	< 20	Cc1cc(C2CN(C[C@H]3CC[C@@H](C(=O)O)CC3)C2)ccc1-n1c(-c2cccnc2N)nc2ccc(-c3ccccc3F)nc21 [Compound I-210]
≥ 2	< 20	Cc1ccccc1-c1ccc2nc(-c3cccnc3N)n(-c3ccc(C4CN(C[C@H]5CC[C@H](C(=O)O)CC5)C4)cc3C)c2n1 [Compound I-211]
< 0.5	< 20	Cc1nc(NC(=O)[C@H]2CC[C@H](C(=O)O)CC2)ccc1-n1c(-c2cccnc2N)nc2ccc(-c3cccc(F)c3)nc21 [Compound I-214]
0.5 to 2	< 20	Cc1nc(NC(=O)[C@H]2CC[C@H](C(=O)O)CC2)ccc1-n1c(-c2cccnc2N)nc2ccc(-c3c(F)cccc3F)nc21 [Compound I-217]
0.5 to 2	< 20	Cc1nc(NC(=O)[C@H]2CC[C@H](C(=O)O)CC2)ccc1-n1c(-c2cccnc2N)nc2ccc(-c3ccccc3F)nc21 [Compound I-218]
0.5 to 2	< 20	COc1ccccc1-c1ccc2nc(-c3cccnc3N)n(-c3ccc(NC(=O)[C@H]4CC[C@H](C(=O)O)CC4)nc3C)c2n1 [Compound I-220]
0.5 to 2	< 20	Nc1ncccc1-c1nc2ccc(-c3ccccc3)cc2n1-c1ccc(C2CN(C[C@H]3CC[C@H](C(=O)O)CC3)C2)cc1 [Compound I-221, (1r,4r)-4-((3-(4-(2-(2-aminopyridin-3-yl)-6-phenyl-1H-benzo[d]imidazol-1-yl)phenyl)azetidin-1-yl)methyl)cyclohexane-1-carboxylic acid]
0.5 to 2	< 20	Cc1cc(C2CN(C[C@H]3CC[C@@H](C(=O)O)CC3)C2)ccc1-n1c(-c2cccnc2N)nc2ccc(-c3ccccc3)cc21 [Compound I-222]
≥ 2	< 20	Cc1cc(C2CN(C[C@H]3CC[C@H](C(=O)O)CC3)C2)ccc1-n1c(-c2cccnc2N)nc2ccc(-c3ccccc3)cc21 [Compound I-223]
≥ 2	< 20	Cc1cc(C2CN(CC3CC4(C3)CC(C(=O)O)C4)C2)ccc1-n1c(-c2cccnc2N)nc2ccc(-c3ccccc3)cc21 (stereo not shown) [Compound I-224]
0.5 to 2	< 20	Cc1nc(NC[C@@H]2CC[C@@H](C(=O)O)C2)ccc1-n1c(-c2cccnc2N)nc2ccc(-c3ccccc3)nc21 [Compound I-227]
< 0.5	< 20	Cc1cc2nc(-c3cccnc3N)n(-c3ccc(C4CN(C[C@H]5CC[C@@H](C(=O)O)CC5)C4)cc3)c2nc1-c1ccccc1 [Compound I-234, Cis-4-((3-(4-(2-(2-aminopyridin-3-yl)-6-methyl-5-phenyl-3H-imidazo[4,5-b]pyridin-3-yl)phenyl)azetidin-1-yl)methyl)cyclohexane-1-carboxylic acid]
< 0.5	< 20	Cc1cc2nc(-c3cccnc3N)n(-c3ccc(C4CN(C[C@H]5CC[C@H](C(=O)O)CC5)C4)cc3)c2nc1-c1ccccc1 [Compound I-235, trans-4-((3-(4-(2-(2-aminopyridin-3-yl)-6-methyl-5-phenyl-3H-imidazo[4,5-b]pyridin-3-yl)phenyl)azetidin-1-yl)methyl)cyclohexane-1-carboxylic acid]

Further lines, the compound ahead of its results:

SMILES	IC50 [1] [µM]	IC50 [2] [µM]
CN(Cc1ccc(-n2c(-c3cccnc3N)nc3ccc(-c4ccccc4)nc32)cc1)[C@H]1CC[C@H](C(N)=O)CC1 [Compound I-187, trans-4-((4-(2-(2-aminopyridin-3-yl)-5-phenyl-3H-imidazo[4,5-b]pyridin-3-yl)benzyl)(methyl)amino)cyclohexane-1-carboxamide]	≥ 2	< 20
Nc1ncccc1-c1nc2ccc(-c3ccccc3)nc2n1-c1ccc(C2CCN(C[C@H]3CC[C@H](C(=O)O)CC3)CC2)cc1 [Compound I-190]	0.5 to 2	< 20
CC1(C)CC(CN2CCC(c3ccc(-n4c(-c5cccnc5N)nc5ccc(-c6ccccc6)nc54)cc3)CC2)CCC1C(=O)O (stereo not shown) [Compound I-193]	≥ 2	< 20
CC1(C)C[C@H](CN2CCC(c3ccc(-n4c(-c5cccnc5N)nc5ccc(-c6ccccc6)nc54)cc3)CC2)CC(C)(C)[C@H]1C(=O)O [Compound I-196]	≥ 2	< 20
Nc1ncccc1-c1nc2ccc(-c3ccccc3)nc2n1-c1ccc(C2CCN(C(=O)[C@H]3CC[C@H](C(=O)O)CC3)CC2)cc1 [Compound I-198]	< 0.5	< 20
Nc1ncccc1-c1nc2ccc(-c3ccccc3)nc2n1-c1ccc(C2CCN(C(=O)[C@H]3CC[C@@H](C(=O)O)CC3)CC2)cc1 [Compound I-199]	< 0.5	< 20
Cc1cc(C2CN(CC3CC4CC(C(=O)O)CC4C3)C2)ccc1-n1c(-c2cccnc2N)nc2ccc(-c3ccccc3F)nc21 (stereo not shown) [Compound I-201]	< 0.5	< 20
Nc1ncccc1-c1nc2ccc(-c3ccccc3F)nc2n1-c1ccc(C2CN(CC3CC4CC(C(=O)O)CC4C3)C2)cc1 (stereo not shown) [Compound I-202]	< 0.5	< 20
Cc1cc(C2CN(CC3CC4(C3)CC(C(=O)O)C4)C2)ccc1-n1c(-c2cccnc2N)nc2ccc(-c3ccccc3)nc21 (stereo not shown) [Compound I-204]	< 0.5	< 20
Cc1cc(C2CN(C[C@H]3CC[C@@H](C(=O)O)CC3)C2)ccc1-n1c(-c2cccnc2N)nc2ccc(-c3ccccc3)nc21 [Compound I-205]	0.5 to 2	< 20
Cc1cc(C2CN(CC34CCC(C(=O)O)(CC3)CC4)C2)ccc1-n1c(-c2cccnc2N)nc2ccc(-c3ccccc3)nc21 [Compound I-206]	0.5 to 2	< 20
Cc1cc(C2CN(CC3CC4CC(C(=O)O)CC4C3)C2)ccc1-n1c(-c2cccnc2N)nc2ccc(-c3ccccc3)nc21 (stereo not shown) [Compound I-207]	0.5 to 2	< 20
Nc1ncccc1-c1nc2ccc(-c3ccccc3)nc2n1-c1c(F)cc(C2CN(C[C@H]3CC[C@H](C(=O)O)CC3)C2)cc1F [Compound I-208]	0.5 to 2	< 20
Cc1cc(C2CN(C[C@H]3CC[C@H](C(=O)O)CC3)C2)ccc1-n1c(-c2cccnc2N)nc2ccc(-c3ccccc3F)nc21 [Compound I-209]	0.5 to 2	< 20
Cc1ccccc1-c1ccc2nc(-c3cccnc3N)n(-c3ccc(C4CN(C[C@H]5CC[C@H](C(=O)O)CC5)C4)cc3)c2n1 [Compound I-212]	0.5 to 2	< 20
Nc1ncccc1-c1nc2ccc(-c3ccccc3F)nc2n1-c1ccc(C2CN(C[C@H]3CC[C@H](C(=O)O)CC3)C2)cc1 [Compound I-213]	< 0.5	< 20
Cc1nc(NC(=O)[C@H]2CC[C@H](C(=O)O)CC2)ccc1-n1c(-c2cccnc2N)nc2ccc(-c3ccc(F)cc3)nc21 [Compound I-215]	0.5 to 2	< 20
Cc1nc(NC(=O)[C@H]2CC[C@H](C(=O)O)CC2)ccc1-n1c(-c2cccnc2N)nc2ccc(-c3ccc(F)cc3F)nc21 [Compound I-216]	≥ 2	< 20
Cc1nc(NC(=O)[C@H]2CC[C@H](C(=O)O)CC2)ccc1-n1c(-c2cccnc2N)nc2ccc(-c3cccc(F)c3F)nc21 [Compound I-219]	0.5 to 2	< 20
Cc1nc(NCC2CC3(C2)CC(C(=O)O)C3)ccc1-n1c(-c2cccnc2N)nc2ccc(-c3ccccc3)nc21 (stereo not shown) [Compound I-225]	< 0.5	< 20
Cc1nc(NC[C@@H]2CC[C@H](C(=O)O)C2)ccc1-n1c(-c2cccnc2N)nc2ccc(-c3ccccc3)nc21 [Compound I-226]	0.5 to 2	< 20
